The conditions of series [1]: pure insulin, depending on purity; cited from earlier work.
Series [2] in a line: Pharmacokinetics of SOMATULINE™ filament vs liquid solution in dogs (FIGS. 4A and 4B). The class given is in vivo. As to conditions: dog, blood. On the procedure:
FIGS. 4A and 4B are graphs showing the blood level in a dog of a somatostatin analog, SOMATULINE™ (BIM-23014C, Biomeasure, Milford Mass.) after implantation of a solid filament compared to a liquid solution of BIM-23014C.
The above protocol was performed by mixing 1.500 g of HEC and 8.500 g of water. 0.42250 g of the resulting gel was added to 0.06395 g of BIM 23014. The mixture was extruded through a […] (0.3 mm internal diameter needle), collected, and dried under vacuum for 24 hours. The dried filament contained 0.107 mg of BIM 23014/cm (weight percentage 50% HEC and 50% BIM 23014).
The filaments were tested for pharmacokinetics and compared to liquid infusions of the same dosage of SOMATULINE™ in dogs. The results are shown in the graphs in FIGS. 4A, 4B, and 5. […] However, the blood concentration decreased to less than 0.1 ng/ml within about 2 hours, to less than 0.001 within about 8 hours, and to about 0.0005 ng/ml in less than 12 hours. On the other hand, the blood concentration of SOMATULINE™ provided by the solid drug filament was at an almost constant level over 0.1 ng/ml for the first 10 hours, declined to about 0.002 ng/ml within 24 hours, and declined further to 0.0005 ng/ml by 72 hours.

Some results are limits rather than exact numbers.

Turning to “recombinant human insulin: pure insulin, e.g., recombinant human insulin”, the “Insulin Units (IU) per mg” value in series [1] was 26 to 28 Insulin Units (IU) per mg.
In the case of `CC(C)[C@@H]1NC(=O)[C@H](CCCCN)NC(=O)[C@@H](Cc2c[nH]c3ccccc23)NC(=O)[C@H](Cc2ccc(O)cc2)NC(=O)[C@@H](NC(=O)[C@H](N)Cc2ccc3ccccc3c2)CSSC[C@@H](C(=O)N[C@H](C(N)=O)[C@@H](C)O)NC1=O` [SOMATULINE™], in series [2] (solid drug filament, first 10 hours, read-out: blood concentration of SOMATULINE™ (almost constant level)), the concentration at 10 h was over 0.1 ng/mL. The same compound came in with a concentration at 24 h in series [2] (solid drug filament, within 24 hours) of about 0.002 ng/mL. Also, the C0 in series [2] (solution formulation, initial, read-out: blood concentration of SOMATULINE™, initial) was about 0.5 ng/mL. The same compound yielded a concentration at 2 h in series [2] (solution formulation, within about 2 hours) of under 0.1 ng/mL. For the same compound, the concentration at 8 h in series [2] (solution formulation, within about 8 hours) was under 0.001 ng/mL.

Source of the values: US6142972A, “Method and apparatus for the delivery of elongate solid drug compositions” (Delab, priority 1998, dated 2000).
